Columns and labels:
β6 integrin promoter = test: Chromatin immunoprecipitation of pCREB on β6 integrin promoter in NP cells; format: cell-based, mouse; details: ChIP, most distal CREB site (Primer 1)
Protocol: The ChIP assays were carried out using the Thermo Fisher ChIP Kit (catalog number: 26156). The crude homogenate from the NP cells was crosslinked with 1% formaldehyde at room temperature for 10 min. The reaction was stopped by adding glycine (0.25 M). After centrifugation, the pellet was collected and lysed in SDS lysis buffer containing protease inhibitor cocktail. The lysis was sonicated until the DNA was broken into fragments with a mean length of 200-1,000 bp. The samples were first pre-cleaned with protein G agarose and then subjected to immunoprecipitation overnight with […] of rabbit antibodies against pCREB (CST, 1:50) With […] of normal rabbit serum overnight at 4° C. The 10-20% of the sample for immunoprecipitation was used as an input (a positive control).

NP tissue = test: iPTH in PTH1R KO mice: Western blot of NP tissue; format: in vivo, mouse
Protocol: (§1) The 11 month-old PTH1R^+/+ and PTH1R^−/− male mice were randomized into four groups: PTH1R^+/++PTH (1-34), PTH1R^+/++Vehicle, PTH1R^−/−+PTH (1-34) and PTH1R^−/−+Vehicle groups (n=8 per group). The 11 month-olds IFT88^+/+ and IFT88^−/− male mice were randomized into four groups: IFT88^+/++PTH (1-34), IFT88^+/++Vehicle, IFT88^−/−+PTH (1-34) and IFT88^−/−+Vehicle groups (n=8 per group). Mice were subcutaneously injected with either PTH (1-34) or vehicle (1 mM acetic acid in phosphate buffered saline (PBS) with equivalent volume of PTH) daily, 5 days per week, and all mice were sacrificed 4 weeks after treatment with PTH (1-34)/vehicle.
Western blot analyses were conducted on the protein lysates from in vitro cultured NP cells or NP tissues from mice at specific time points after PTH (1-34) treatment and human at different ages with lumbar disc degeneration. The protein extract was centrifuged, the concentration of supernatant evaluated by DC protein assay (Bio-Rad Laboratories), and then separated by SDS-PAGE and blotted on a polyvinylidene fluoride membrane (Bio-Rad Laboratories). Following incubation in specific antibodies, we detected proteins using an enhanced chemiluminescence kit (Amersham Biosciences). We used specific antibodies recognizing rabbit CTGF (CCN2) (Abcam, 1:1000), Aggrecan (ACAN) (Abcan, 1:1000), p-Smad2 (Cell Signaling Technology Inc., 1:1000), Smad2 (Cell Signaling Technology Inc., 1:1000), GAPDH (Cell Signaling Technology Inc., 1:1000), CREB (Abcam, 1:2500), pCREB (Abcam, 1:2500), PTH1R PRB-635P (Covance, 1:100), PTH1R PRB-640P (Covance, 1:500) and goat integrin β6 (Santa Cruz, 1:500) to examine the protein concentrations in the lysates. Co-immunoprecipitation analyses were conducted on the nuclear and cytoplasmic protein extraction using NE-PER Nuclear and Cytoplasmic Extraction Kit (Pierce Thermo Scientific, 78833) from in vitro cultured NP cells treated with PTH (1-34) or vehicle.

αvβ integrins = test: Immunostaining of αvβ integrins in IVD sections of aged mice; format: in vivo, mouse; details: 18-month old mice; only αvβ6 among αvβ3, αvβ5, αvβ6, β8
Protocol: For immunocytochemical staining, we incubated GFP labeled NP cells co-stained with primary antibody to rabbit PTH1R PRB-635P (Covance, 1:100) for 1 h and subsequently stained with secondary antibodies conjugated with fluorescence at room temperature. At the time of euthanasia, we dissected and fixed the lumbar vertebral spine in 10% buffered formalin for 48 h, decalcified them in 10% EDTA (pH 7.4) for 14-21 days and embedded them in paraffin or optimal cutting temperature (OCT) compound (Sakura Finetek). Fourmicrometer-thick coronal-oriented sections of the L1-L6 spine were processed for safranin O and fast green staining. Sections for immunostaining was performed using a standard protocol and incubated with primary antibodies to rabbit ACAN (Abcam, 1:100), CCN2 (Abcam, 1:100), integrin β8 (Abcam, 1:200), pCREB (Abcam, 1:100) and PTH1R PRB-635P (Covance, 1:100), mouse pSmad2/3 (Santa Cruz, 1:100), integrin αvβ6 (Millipore, 1:100), integrin αvβ3 (Bioss, 1:100,), integrin αvβ5 (Bioss, 1:100) at 4° C. overnight. For immunohistochemical staining, a horse radish peroxidase-streptavidin detection system (Dako) was subsequently used to detect the immunoactivity, followed by counterstaining with hematoxylin (Sigma-Aldrich). For immunofluorescent assay, the slides were incubated with secondary antibodies conjugated with fluorescence at room temperature for 1 h while avoiding light. […]

NP cells [1] = test: iPTH in IFT88-/- and wild-type mice: immunostaining of pSmad2/3, CCN2, ACAN; format: in vivo, mouse
Protocol: as §1
For immunocytochemical staining, we incubated GFP labeled NP cells co-stained with primary antibody to rabbit PTH1R PRB-635P (Covance, 1:100) for 1 h and subsequently stained with secondary antibodies conjugated with fluorescence at room temperature. At the time of euthanasia, we dissected and fixed the lumbar vertebral spine in 10% buffered formalin for 48 h, decalcified them in 10% EDTA (pH 7.4) for 14-21 days and embedded them in paraffin or optimal cutting temperature (OCT) compound (Sakura Finetek). Fourmicrometer-thick coronal-oriented sections of the L1-L6 spine were processed for safranin O and fast green staining. Sections for immunostaining was performed using a standard protocol and incubated with primary antibodies to rabbit ACAN (Abcam, 1:100), CCN2 (Abcam, 1:100), integrin β8 (Abcam, 1:200), pCREB (Abcam, 1:100) and PTH1R PRB-635P (Covance, 1:100), mouse pSmad2/3 (Santa Cruz, 1:100), integrin αvβ6 (Millipore, 1:100), integrin αvβ3 (Bioss, 1:100,), integrin αvβ5 (Bioss, 1:100) at 4° C. overnight. For immunohistochemical staining, a horse radish peroxidase-streptavidin detection system (Dako) was subsequently used to detect the immunoactivity, followed by counterstaining with hematoxylin (Sigma-Aldrich). For immunofluorescent assay, the slides were incubated with secondary antibodies conjugated with fluorescence at room temperature for 1 h while avoiding light. We used isotype-matched controls, such as polyclonal rabbit IgG (R&D Systems, AB-105-C) under the same concentrations and conditions as negative controls. We micro photographed sections to perform histomorphometric measurements on the entire area of the L3-L4 of the spine (Olympus DP71).
Quantitative histomorphometric analysis was conducted in a blinded fashion with Image-Pro Plus Software version 6.0 (Media Cybernetics Inc). IVD histological score were obtained as previously described67. Five randomly selected sections per mice in each group at L3-L4 level were chosen for quantitative histomorphometric analysis. The percentage of pSmad2/3 and pCREB positive cells was obtained by counting the number of positive staining cells to the number of total cells in the NP region. The percentage area of CCN2 and ACAN positive staining was calculated by measuring the positive area to the whole area of the L3-L4 in each group.

NP cells [2] = test: iPTH in PTH1R KO and wild-type mice: qRT-PCR of CCN2 and ACAN; format: in vivo, mouse
Protocol: as §1
After protein extraction, specimen from the same group of mice were prepared for RNA extraction using TRIzol reagent (Invitogen) according to the manufacturer's instruction. The purity of RNA was tested by measuring the absorbance at 260 and 280 nm. For qRT-PCR, two micrograms of RNA was reverse transcribed into cDNA using the SuperScript firststrand synthesis system (Invitrogen) and analyzed with SYBR Green-Master Mix (Qiagen) in the thermal cycler with two sets of primers specific for each target gene. Relative expression was calculated for each gene by the 2^−ΔΔCT method, with GAPDH for normalization.

[3] = wild-type mice relative to vehicle mice

CC[C@H](C)[C@H](NC(=O)[C@H](CCC(=O)O)NC(=O)[C@H](CO)NC(=O)[C@@H](NC(=O)[C@@H](N)CO)C(C)C)C(=O)N[C@@H](CCC(N)=O)C(=O)N[C@@H](CC(C)C)C(=O)N[C@@H](CCSC)C(=O)N[C@@H](Cc1cnc[nH]1)C(=O)N[C@@H](CC(N)=O)C(=O)N[C@@H](CC(C)C)C(=O)NCC(=O)N[C@@H](CCCCN)C(=O)N[C@@H](Cc1cnc[nH]1)C(=O)N[C@@H](CC(C)C)C(=O)N[C@@H](CC(N)=O)C(=O)N[C@@H](CO)C(=O)N[C@@H](CCSC)C(=O)N[C@@H](CCC(=O)O)C(=O)N[C@@H](CCCN=C(N)N)C(=O)N[C@H](C(=O)N[C@@H](CCC(=O)O)C(=O)N[C@@H](Cc1c[nH]c2ccccc12)C(=O)N[C@@H](CC(C)C)C(=O)N[C@@H](CCCN=C(N)N)C(=O)N[C@@H](CCCCN)C(=O)N[C@@H](CCCCN)C(=O)N[C@@H](CC(C)C)C(=O)N[C@@H](CCC(N)=O)C(=O)N[C@@H](CC(=O)O)C(=O)N[C@H](C(=O)N[C@@H](Cc1cnc[nH]1)C(=O)N[C@@H](CC(N)=O)C(=O)N[C@@H](Cc1ccccc1)C(=O)O)C(C)C)C(C)C [PTH (1-34), teriparatide]
binding of pCREB to the β6 integrin promoter (β6 integrin promoter): inducing direct binding of pCREB | PTH induced increase in level of ACAN (NP tissue): diminished | PTH induced increase in level of CCN2 (NP tissue): diminished | PTH induced increase in level of pSmad2 (NP tissue): diminished | level of αvβ6 integrin (αvβ integrins): significantly increased | PTH effect on level of CCN2 (NP cells [1]; IFT88-/- mice): blunted | PTH effect on level of aggrecan (NP cells [1]; IFT88-/- mice): blunted | PTH effect on number of pSmad2/3+ NP cells (NP cells [1]; IFT88-/- mice): blunted | level of CCN2 (NP cells [1]; [3]): significantly stimulated | level of aggrecan (NP cells [1]; [3]): significantly stimulated | number of pSmad2/3+ NP cells (NP cells [1]; [3]): significantly stimulated | mRNA expression of ACAN (NP cells [2]; NP cells of wild-type mice): significantly increased | mRNA expression of CCN2 (NP cells [2]; NP cells of wild-type mice): significantly increased | PTH increase of mRNA expression of ACAN (NP cells [2]; PTH1R KO mice): blunted | PTH increase of mRNA expression of CCN2 (NP cells [2]; PTH1R KO mice): blunted
